Experimental data as given in patent US20110245334A1, “USE OF RACEMATES OF PINOCEMBRIN IN PREPARING MEDICAMENTS FOR TREATING STROKE” (CSPC Zhonggi Pharmaceutical Technology (Shijiazhuang) Co. …, priority 2008, published 2011).

Columns and labels:
Assay type in all cases: in vivo, rat
plasma fibrinogen = experiment: Plasma fibrinogen assay (ELISA) in SHRSP; parameters: Plasma fibrinogen: unit not given here; conditions: SHRSP rats, 3 mg/kg
Procedure: The mixture was centrifuged for 15 min at 3000 rpm and plasma fibrinogen in liquid supernatant was determined by euzymelinked immunosorbent assay (ELISA).

MCAO rats [1] = experiment: Cerebral infarct volume (TTC), MCAO; conditions: 3 mg/kg
Procedure: After neurobehavioral scoring, the rats were put to death by decollation and their brain tissues were removed quickly and put into a refrigerator of −20° C. 10 min later, the brain tissue was moved to an environment of room temperature. After the olfactory bulb, cerebellar and lower brain stem were resected, the brain tissue was cut into five continuous coronal slices with an interval of 2 mm and was cut first on the connection midpoint of brain anterior pole and optic decussation, second on optic decussation, third on funnel handle and fourth on midpoint of funnel handle and thick leaves caudate nucleus. Then the brain slices were quickly put into 5 ml solution containing 4% TTC and 0.1 ml mol·L^−1K2HPO4 and incubated at a constant temperature of 37° C. and in condition of darkness for 30 min. During the time period, the brain slices were tipped every 5 min. […] Every group of brain slices were put in order and photographed. The photographs were processed by an image analysis system and infarct area in every slice was calculated. The infarct volume of every slice was calculated by multiplying the infarct area by the thickness of slice (2 mm), and the infarct volume was the sum of infarct volumes of all slices.
Infarct volume(%)=(volume of surgery-contralateral hemisphere−infarct volume of surgery-homolateral hemisphere)/volume of surgery-contralateral hemisphere×100%

MCAO rats [2] = experiment: Regional cerebral blood flow (LDF), MCAO; conditions: 3 mg/kg
Description: The rats were fixed pronely on the stereotaxic apparatus and subjected to craniotomy. After cleaning for operation visual field, bregma was used as an origin, and a site situated 2 mm behind and 3 mm right to the bregma was selected as a measuring point. The region […] around the site was thinned by a dental drill. In the process, the integrity of dura was maintained and large vessels were avoided. Probe holder was located and fixed.
The rats were supinely fixed on the operating table to carry out MCAO surgery. When a nylon line was inserted in ICA, it was not inserted into intracranial part until LDF value was stable, and blood flow value in 10 min was recorded, and an average value thereof is used as a baseline value of cerebral blood flow. After the MCAO surgery completed, the nylon line was inserted into the intracranial part. When the blood flow value suddenly declined to 20-30% of the baseline value, it was noted that the blood flow in MCA had been blocked. The blood flow value before MCAO in every group was used as a baseline value (100%) of the group. […] LDF value was determined at the same site before the animals was put to death.

tMCAO rats = experiment: Brain water content, tMCAO time window study; conditions: 2 hours ischemia and 24 hours reperfusion, 1 mg/kg, 3 h
Procedure: 1. In the test, transient middle cerebral artery occlusion (tMCAO) model of rats was adopted. The reperfusion was performed after focal cerebral ischemia for 2 hours so as to inspect therapeutic time window of pinocembrin after focal cerebral ischemia. The rats were administered by pinocembrin racemate (1 mg/kg, 5 mg/kg, intravenous injection) after reperfusion 1 hour, 4 hours and 6 hours (i.e., ischemia 3 hour, 6 hours and 8 hours). (R)-pinocembrin and (S)-pinocembrin (1 mg/kg, 5 mg/kg, intravenous injection) were administered after reperfusion 1 hour and 4 hours (i.e., ischemia 3 hour and 6 hours). The therapeutic time windows of these drugs in focal cerebral ischemia were assessed by studying their effects to neurological symptom scores, infarct sizes and brain water contents during 24 hours after tMCAO.
2.4 Experimental Grouping and Administration • Sham operation group (intravenous injection of normal saline after 3 hours of ischemia); • Model group (intravenous injection of 50 mg/kg hydroxypropyl β-cyclodextrin after 3 hours of ischemia); • Nimodipine group (1 mg/kg, administered after 3 hours of ischemia); • Pinocembrin racemate group (1 mg/kg, 5 mg/kg, administered after 3, 6 and 8 hours of ischemia); • (R)-pinocembrin group (1 mg/kg, 5 mg/kg, administered after 3 and 6 hours of ischemia); • (S)-pinocembrin group (1 mg/kg, 5 mg/kg, administered after 3 and 6 hours of ischemia).
First administration was performed by intravenous injection, and intraperitoneal injection was carried out once 12 hours later with a dose 1.5 times of that for intravenous injection.
The wet weight of each animal's brain was weighted before sliced. After staining, the brain slices were dried at 105° C. for 24 hours, and the dry weight of each animal's brain was weighted. The brain water contents of animals of various groups were compared. Brain water content=(brain wet weight−brain dry weight)/brain wet weight×100%.

COCCOC(=O)C1=C(C)NC(C)=C(C(=O)OC(C)C)C1c1cccc([N+](=O)[O-])c1 (centres unmarked) [Nimodipine, reference compound]
Plasma fibrinogen (plasma fibrinogen): 2.67 ± 0.13 | Percentage of infarct volume (%) (MCAO rats [1]): 16.7 ± 1.3 % | Percentage of infarct volume (%) (MCAO rats [1]; listed as nimodipine): 16.7±1.3% | regional cerebral blood flow (rCBF) (MCAO rats [2]; time point 10 min): 99.91 ± 7.27 % of baseline value | regional cerebral blood flow (rCBF) (MCAO rats [2]; time point 20 min): 32.98 ± 8.09 % of baseline value | regional cerebral blood flow (rCBF) (MCAO rats [2]; time point 30 min): 55.58 ± 6.09 % of baseline value | regional cerebral blood flow (rCBF) (MCAO rats [2]; time point 30 min, listed as nimodipine): 55.58±6.09 % of baseline value | regional cerebral blood flow (rCBF) (MCAO rats [2]; time point 40 min): 67.96 ± 7.81 % of baseline value | regional cerebral blood flow (rCBF) (MCAO rats [2]; time point 50 min): 66.59 ± 9.08 % of baseline value | regional cerebral blood flow (rCBF) (MCAO rats [2]; time point 60 min): 64.09 ± 8.03 % of baseline value | regional cerebral blood flow (rCBF) (MCAO rats [2]; time point 70 min): 65.72 ± 8.58 % of baseline value | regional cerebral blood flow (rCBF) (MCAO rats [2]; time point 80 min): 64.98 ± 6.25 % of baseline value | regional cerebral blood flow (rCBF) (MCAO rats [2]; time point 90 min): 63.99 ± 6.09 % of baseline value | regional cerebral blood flow (rCBF) (MCAO rats [2]; time point 100 min): 67.01 ± 5.67 % of baseline value | regional cerebral blood flow (rCBF) (MCAO rats [2]; time point 110 min): 63.07 ± 6.1 % of baseline value | regional cerebral blood flow (rCBF) (MCAO rats [2]; time point 120 min): 61.85 ± 7.14 % of baseline value | regional cerebral blood flow (rCBF) (MCAO rats [2]; time point 130 min): 67.12 ± 8.09 % of baseline value | regional cerebral blood flow (rCBF) (MCAO rats [2]; time point 140 min): 65.89 ± 6.81 % of baseline value | regional cerebral blood flow (rCBF) (MCAO rats [2]; time point 150 min): 61.8 ± 8.08 % of baseline value | regional cerebral blood flow (rCBF) (MCAO rats [2]; time point 160 min): 63.47 ± 9.03 % of baseline value | regional cerebral blood flow (rCBF) (MCAO rats [2]; time point 170 min): 65.9 ± 7.58 % of baseline value | regional cerebral blood flow (rCBF) (MCAO rats [2]; time point 180 min): 66.08 ± 6.89 % of baseline value | Brain water content (%) (tMCAO rats): 83.33 ± 1.01%
